Experimental data: the NIST ThermoML archive (doi:10.1021/je100148h)
± gives the expanded uncertainty stated by the source.

Assay: xn = mol fraction of the nth substance listed
Conditions: Fluid (supercritical or subcritical phases), Burnett expansion method

CCC [propane] + O=C=O
Conditions	mass density [kg/m3]
319.99 K, 766.06 kPa, x2 = 0.8017	13.1764 ± 0.011
320 K, 410.29 kPa, x2 = 0.8017	6.9285 ± 0.012
320 K, 561.41 kPa, x2 = 0.8017	9.5546 ± 0.012
320 K, 1040.9 kPa, x2 = 0.8017	18.1699 ± 0.011
320 K, 1137.2 kPa, x2 = 0.5158	20.5385 ± 0.012
320 K, 1406.4 kPa, x2 = 0.8017	25.056 ± 0.012
320 K, 1885.5 kPa, x2 = 0.8017	34.5507 ± 0.013
320 K, 2500.6 kPa, x2 = 0.8017	47.6423 ± 0.014
320 K, 3266.5 kPa, x2 = 0.8017	65.693 ± 0.015
320.01 K, 158.39 kPa, x2 = 0.8017	2.6416 ± 0.012
320.01 K, 177.71 kPa, x2 = 0.5158	2.9791 ± 0.011
320.01 K, 217.81 kPa, x2 = 0.8017	3.6431 ± 0.012
320.01 K, 244.02 kPa, x2 = 0.5158	4.1102 ± 0.011
320.01 K, 299.21 kPa, x2 = 0.8017	5.0239 ± 0.012
320.01 K, 334.43 kPa, x2 = 0.5158	5.6704 ± 0.011
320.01 K, 457.2 kPa, x2 = 0.5158	7.8226 ± 0.011
320.01 K, 622.82 kPa, x2 = 0.5158	10.7917 ± 0.011
320.01 K, 844.37 kPa, x2 = 0.5158	14.8878 ± 0.011
320.01 K, 1518.1 kPa, x2 = 0.5158	28.332 ± 0.013
320.01 K, 1999.6 kPa, x2 = 0.5158	39.0832 ± 0.014
320.01 K, 2584 kPa, x2 = 0.5158	53.9126 ± 0.015
329.98 K, 579.89 kPa, x2 = 0.8017	9.5517 ± 0.013
329.99 K, 791.85 kPa, x2 = 0.8017	13.1719 ± 0.012
329.99 K, 1457.4 kPa, x2 = 0.8017	25.0477 ± 0.012
329.99 K, 3418.1 kPa, x2 = 0.8017	65.6701 ± 0.015
330 K, 308.75 kPa, x2 = 0.8017	5.0223 ± 0.014
330 K, 423.55 kPa, x2 = 0.8017	6.9261 ± 0.013
330 K, 1958.2 kPa, x2 = 0.8017	34.5379 ± 0.012
330 K, 2604.9 kPa, x2 = 0.8017	47.625 ± 0.013
330 K, 4401.1 kPa, x2 = 0.8017	90.5446 ± 0.016
330.01 K, 163.4 kPa, x2 = 0.8017	2.6407 ± 0.014
330.01 K, 183.36 kPa, x2 = 0.5158	2.9774 ± 0.011
330.01 K, 224.73 kPa, x2 = 0.8017	3.6418 ± 0.014
330.01 K, 251.86 kPa, x2 = 0.5158	4.1078 ± 0.011
330.01 K, 345.31 kPa, x2 = 0.5158	5.667 ± 0.011
330.01 K, 472.35 kPa, x2 = 0.5158	7.8181 ± 0.011
330.01 K, 644.04 kPa, x2 = 0.5158	10.7856 ± 0.011
330.01 K, 874.2 kPa, x2 = 0.5158	14.879 ± 0.011
330.01 K, 1077.1 kPa, x2 = 0.8017	18.1629 ± 0.012
330.01 K, 1179.4 kPa, x2 = 0.5158	20.5259 ± 0.011
330.01 K, 1578.5 kPa, x2 = 0.5158	28.3153 ± 0.012
330.01 K, 2086.8 kPa, x2 = 0.5158	39.0593 ± 0.013
330.01 K, 2711.7 kPa, x2 = 0.5158	53.8795 ± 0.015
330.01 K, 3442.6 kPa, x2 = 0.5158	74.3214 ± 0.018
339.99 K, 598.29 kPa, x2 = 0.8017	9.5479 ± 0.015
339.99 K, 817.54 kPa, x2 = 0.8017	13.1668 ± 0.014
339.99 K, 1508.1 kPa, x2 = 0.8017	25.0378 ± 0.013
340 K, 231.59 kPa, x2 = 0.8017	3.6405 ± 0.016
340 K, 436.79 kPa, x2 = 0.8017	6.9234 ± 0.015
340 K, 2030.2 kPa, x2 = 0.8017	34.5251 ± 0.012
340 K, 2708.2 kPa, x2 = 0.8017	47.606 ± 0.013
340 K, 3567.9 kPa, x2 = 0.8017	65.643 ± 0.014
340 K, 4621.3 kPa, x2 = 0.8017	90.5058 ± 0.019
340.01 K, 168.38 kPa, x2 = 0.8017	2.6397 ± 0.016
340.01 K, 189.01 kPa, x2 = 0.5158	2.9763 ± 0.011
340.01 K, 259.67 kPa, x2 = 0.5158	4.1062 ± 0.011
340.01 K, 318.3 kPa, x2 = 0.8017	5.0202 ± 0.015
340.01 K, 487.5 kPa, x2 = 0.5158	7.8151 ± 0.011
340.01 K, 665.18 kPa, x2 = 0.5158	10.7812 ± 0.011
340.01 K, 903.91 kPa, x2 = 0.5158	14.873 ± 0.011
340.01 K, 1113.1 kPa, x2 = 0.8017	18.156 ± 0.013
340.01 K, 1221.3 kPa, x2 = 0.5158	20.5179 ± 0.011
340.01 K, 1638.3 kPa, x2 = 0.5158	28.3036 ± 0.012
340.01 K, 2172.9 kPa, x2 = 0.5158	39.0436 ± 0.013
340.01 K, 2837.3 kPa, x2 = 0.5158	53.8584 ± 0.014
340.01 K, 3628.8 kPa, x2 = 0.5158	74.2902 ± 0.02
340.01 K, 4509 kPa, x2 = 0.5158	102.472 ± 0.023
340.01 K, 5849.8 kPa, x2 = 0.8017	124.787 ± 0.022
340.02 K, 356.19 kPa, x2 = 0.5158	5.6647 ± 0.011
350.01 K, 173.33 kPa, x2 = 0.8017	2.6389 ± 0.018
350.01 K, 194.63 kPa, x2 = 0.5158	2.9748 ± 0.011
350.01 K, 267.49 kPa, x2 = 0.5158	4.1042 ± 0.011
350.01 K, 367.05 kPa, x2 = 0.5158	5.662 ± 0.011
350.01 K, 502.56 kPa, x2 = 0.5158	7.8112 ± 0.011
350.01 K, 616.66 kPa, x2 = 0.8017	9.5444 ± 0.016
350.01 K, 686.24 kPa, x2 = 0.5158	10.776 ± 0.011
350.01 K, 843.17 kPa, x2 = 0.8017	13.1618 ± 0.016
350.01 K, 933.45 kPa, x2 = 0.5158	14.8658 ± 0.011
350.01 K, 1149 kPa, x2 = 0.8017	18.1499 ± 0.015
350.01 K, 1263 kPa, x2 = 0.5158	20.5077 ± 0.011
350.01 K, 1558.6 kPa, x2 = 0.8017	25.0284 ± 0.014
350.01 K, 1697.7 kPa, x2 = 0.5158	28.2897 ± 0.012
350.01 K, 2101.9 kPa, x2 = 0.8017	34.5131 ± 0.013
350.01 K, 2258.2 kPa, x2 = 0.5158	39.0243 ± 0.012
350.01 K, 2810.8 kPa, x2 = 0.8017	47.5894 ± 0.013
350.01 K, 2961.5 kPa, x2 = 0.5158	53.8306 ± 0.014
350.01 K, 3716.3 kPa, x2 = 0.8017	65.6181 ± 0.013
350.01 K, 3812 kPa, x2 = 0.5158	74.2525 ± 0.018
350.01 K, 4782.9 kPa, x2 = 0.5158	102.417 ± 0.024
350.01 K, 4838.8 kPa, x2 = 0.8017	90.4734 ± 0.018
350.01 K, 5812.8 kPa, x2 = 0.5158	141.262 ± 0.028
350.02 K, 238.49 kPa, x2 = 0.8017	3.6392 ± 0.018
350.02 K, 327.8 kPa, x2 = 0.8017	5.0187 ± 0.017
350.02 K, 450.01 kPa, x2 = 0.8017	6.9209 ± 0.017
350.02 K, 6175.3 kPa, x2 = 0.8017	124.74 ± 0.021
360.01 K, 200.24 kPa, x2 = 0.5158	2.9738 ± 0.011
360.01 K, 275.27 kPa, x2 = 0.5158	4.1028 ± 0.011
360.01 K, 377.87 kPa, x2 = 0.5158	5.66 ± 0.011
360.01 K, 517.62 kPa, x2 = 0.5158	7.8085 ± 0.011
360.01 K, 707.21 kPa, x2 = 0.5158	10.7723 ± 0.011
360.01 K, 962.87 kPa, x2 = 0.5158	14.8606 ± 0.011
360.01 K, 1184.7 kPa, x2 = 0.8017	18.1432 ± 0.016
360.01 K, 1304.5 kPa, x2 = 0.5158	20.5005 ± 0.011
360.01 K, 1608.9 kPa, x2 = 0.8017	25.0192 ± 0.015
360.01 K, 1756.6 kPa, x2 = 0.5158	28.2797 ± 0.012
360.01 K, 2173.2 kPa, x2 = 0.8017	34.4994 ± 0.014
360.01 K, 2342.9 kPa, x2 = 0.5158	39.0102 ± 0.012
360.01 K, 2912.6 kPa, x2 = 0.8017	47.5708 ± 0.013
360.01 K, 3084.3 kPa, x2 = 0.5158	53.8108 ± 0.013
360.01 K, 3992.6 kPa, x2 = 0.5158	74.2241 ± 0.017
360.01 K, 5052 kPa, x2 = 0.5158	102.377 ± 0.032
